For 86 molecules, melting point results are on record in a melting point compilation (Tetko et al.; mined from patent text by program, amines drawn as free bases though some values may be those of a salt).

With `O=C(c1ccccc1)c1cccnc1-c1nc(NCc2ccc(Cl)cc2)c2ccccc2n1`, the melting point (commonly the temperature, or range, at which the solid turns liquid) fell in the range of 147 to 149 °C. With `COC(=O)c1nc(-c2ccc(Cl)cc2F)cc(N)c1Br` the figure was 148 to 149 °C. Molecule `O=C(c1ccc(Cl)cc1)[C@H]1C[C@H]1C(=O)O` (relative stereo) registered a melting point of 150 to 153 °C. With `COc1cc(C)ccc1S(=O)(=O)NC(=O)C(c1ccc2c(c1)OCO2)c1cn(C)c2ccc(Br)cc12` (stereo unspecified) the figure was 145 to 150 °C. With `COc1ccc(CNc2cc3c(Nc4ccc5c(cnn5Cc5cccc(F)c5)c4)ncnc3cn2)cc1` the figure was 196 to 198 °C. Then `CN1C(=O)C(NC(=O)Nc2ccc([N+](=O)[O-])cc2)N=C(c2ccccc2)c2ccccc21` (stereo unspecified), with 292 to 293 °C.

As to `COc1ccc(C(N)=Nc2ccc(C(=O)O)cc2)cc1C12CC3CC(CC(C3)C1)C2`, the melting point lay within 263 to 265 °C.

`CC(CO)(c1ccc(Cl)cc1)N1CCN(c2ccc(CO)c(Cl)c2)CC1` (stereo unspecified) registered a melting point of 126 to 130 °C. Then `CCOC(=O)C(=Cc1ccc(-c2ccc(Cl)cc2)o1)C(=O)OCC`, with 78 to 80 °C; and `CN(CC(O)C(N)C(=O)c1cccc(C(F)(F)F)c1)c1ccc(Cl)cc1` (stereo unspecified), with 128 to 132 °C; and `Cc1ccc2c(N3CCN(C)C3=O)ccnc2c1NC(=O)c1c(Cl)cccc1Cl`, with more than 250 °C.

`Cc1ccccc1-c1ccc(C(=O)N2Cc3ccc(C(=O)NCCc4ccc(Cl)cc4)n3Cc3ccccc32)cc1C` displayed a melting point of 169 to 171 °C.

The molecule `CC(CO)N1C(=O)N(c2ccc(Cl)cc2)CC1C` (stereo unspecified) had a melting point of 108 to 110 °C. Then `N#Cc1ccc(Oc2cccc(N)c2)cc1C#N`, with 171 to 172 °C; and `O=C1C(=O)c2ccc(Br)cc2C2=C1SCC1(CCN(CC(O)COc3ccc4cc(Br)ccc4c3)CC1)O2` (stereo unspecified), with 104 to 105 °C; and `Cc1nnc2ccc(-c3ccc([N+](=O)[O-])c(C(F)(F)F)c3)nn12`, with 293 to 295 °C.

In the case of `COCOc1ccc(C(CS(=O)(=O)c2ccc(-c3ccc(C(F)(F)F)cc3)cc2)N(O)C=O)cc1` (stereo unspecified), the melting point was 137 to 138 °C.

For the molecule `Clc1nc(-c2ccccc2)no1`, the melting point lay within 40 to 42 °C.

On to `CCc1c(-c2ccncn2)ssc1=S`, for which the melting point was in the range of 100 to 102 °C.

Regarding `CCOC(=O)C(C)=NNc1ccc2[nH]c(=O)[nH]c2c1`, the melting point came out at 220 °C. With `c1ccc(C2SCCCS2)cc1` the figure was 72 to 73 °C; with `CCCC[C@H](NC(=O)OC(C)(C)C)C(=O)CCCc1cccs1`, 50.5 to 52.5 °C; with `NC1=NC(c2ccc(F)cc2)CO1` (stereo unspecified), 116 to 121 °C. The molecule `CCCCc1nc2ccccn2c(=O)c1-c1ccc(NC[C@H]2CCCO2)cc1` registered a melting point of 155 to 170 °C. With `COc1ccc(-c2ccc(C(=O)O)cc2)c2c1OC(C)(C)C2` the figure was 249 to 252 °C. As to `CCCCOc1cc(Cl)c(OCCCC)cc1N`, the melting point lay in the range of 43 to 44 °C.

The molecule `Cc1c(CC(=O)O)c2cc(O)c(F)cc2n1C(=O)c1ccc(Cl)cc1` displayed a melting point of 193 to 195 °C. For `COC(=O)c1cc([N+](=O)[O-])c(C)s1`, the melting point is 81 °C. `CCC1c2cccn2-c2cc(O)c(F)cc2N1S(=O)(=O)c1ccc(O)c(C)c1` (stereo unspecified) gave a melting point of 194 to 196 °C. With `CCOC(=O)c1nn(Cc2cn(C(c3ccccc3)(c3ccccc3)c3ccccc3)cn2)c2cc(OC)c(OC)cc12` the figure was 184 to 186 °C. For the molecule `O=C1CCC(=O)C1C(=O)CCc1ccc2c(c1)OCO2`, the melting point lay in the range of 93 to 94 °C. Then `COC(=O)C1=C(C)NC(C)=C(C(=O)OC)C1CCCCC(=O)O`, with 150 to 151 °C; and `CC(NC(=O)Cc1cc(F)cc(F)c1)C(=O)NC1C(=O)NCc2cc(F)ccc21` (stereo unspecified), with 195 to 200 °C; and `Cc1cc(-n2cncn2)c2cccc(OCc3c(Cl)ccc(S(=O)(=O)N4CCC[C@H]4C(=O)NCCCN(C)C)c3Cl)c2n1`, with 105 °C. With `Cc1c(Br)cc(C(C)(CO)c2ccc(C(C)C)cc2)c(O)c1C` (stereo unspecified) the figure was 110 to 111 °C. `COc1cc(OC)n2nc(NS(=O)(=O)c3c(Cl)cccc3Cl)nc2n1` had a melting point of 211 to 213 °C.

Regarding `COC(=O)c1ccc(-c2ncc(-c3ccc4c(c3)C(C)(C)CCC4(C)C)o2)cc1`, the melting point lay in the range of 153 to 155 °C. For `C#CCNC(=O)C(C#N)C(=O)C1CC1` (stereo unspecified), the melting point lay within 128 to 129 °C. In turn, `COc1ccc(S(=O)(=O)F)cc1NC(C)=O` gave a melting point of 162 to 164 °C. Then `CC1(C)C(C=C(F)C(=O)OCC(F)(F)F)C1C(=O)OC(C#N)c1ccc(F)c(Oc2ccccc2)c1` (stereo unspecified), with 85 °C; and `COc1ccc(S(=O)(=O)c2ccc3cc(Br)ccc3c2)cc1`, with 180 to 181 °C; and `CC(OS(C)(=O)=O)c1ccc([N+](=O)[O-])cc1` (stereo unspecified), with 70 °C. In turn, `Cc1nc(N)[nH]c(=O)c1N1CCN(c2ccc(CN)cc2)CC1` had a melting point of 281 to 282 °C.

`Cc1ccc(S(=O)(=O)NCCc2cccc(OCCN)c2)cc1` registered a melting point of 128 to 130 °C. With `C#CC1C2=C(c3ccc(OCc4ccccc4[N+](=O)[O-])cc3N1C(=O)Oc1ccccc1)C(O[Si](C)(C)C(C)(C)C)CCC2` (stereo unspecified) the figure was 188 to 190 °C; with `Cc1ccccc1CC(=O)c1cc(O)c(O)c([N+](=O)[O-])c1`, 128 to 129 °C; with `Nc1nc(Cc2ccccc2)no1`, 142 to 145 °C. With `Cc1cn(COCCOC(=O)c2ccccc2)c(=O)[nH]c1=O` the figure was 94 to 99 °C; with `c1cc2c(cc1-c1nc(OCC3CC3)nc3cc4c(cc13)OCO4)OCO2`, 175 to 182 °C. For the molecule `CCOC(=O)C(C)(C)OCc1oc(-c2ccc(Cl)cc2)nc1C`, the melting point lay in the range of 75 to 76 °C. Then `O=C(O)C1SCSCC12OCCO2` (stereo unspecified), with 195 to 197 °C; and `CN(Cc1ccc(NC(=O)C2CCS(=O)(=O)c3ccc(OCc4ccc(F)cc4)cc3C2)cc1)C1CCOCC1` (stereo unspecified), with 232 to 234 °C. `N#CC1(Sc2ccccc2)Cc2cc3c(cc21)N(C(=O)Nc1cccnc1)CC3` (stereo unspecified) had a melting point of 110 to 113 °C.

In turn, `N#Cc1ccc2c(c1)nc(N)n2CCC(=O)O` showed a melting point of more than 320 °C. Then `CN1CCN(c2cccc3c2C[C@H](NC(=O)c2ccc(N4CCCCC4)cc2)CC3)CC1`, with 196 to 198 °C.

`Clc1ccc2c(c1)N=C(NCCn1ccnc1)c1ccccc1N2` gave a melting point of 168 to 170 °C. Then `CN(C)CCN1c2ccccc2C(=O)N(C)c2cccnc21`, with 109 to 110 °C. Then `Cc1cc(C)c(Nc2nc(C)ccc2S(=O)(=O)c2ccc(OCCCO)cc2)c(C)c1`, with 152 to 153 °C. With `CN(c1cncnc1)c1nc(N2CCOCC2)nc(-n2c(C(F)F)nc3ccccc32)n1` the figure was 202 to 205 °C. `COc1cc(OC)nc(Oc2ccnc3c(Cl)cccc23)n1` displayed a melting point of 115 to 118 °C. With `O=C(Nc1ccccn1)c1nc2ccccc2[nH]1` the figure was 206 °C. `c1ccc(C(c2ccccc2)(c2ncccn2)n2ccnc2)cc1`: the melting point is 138 to 143 °C. Then `CCOC(=O)C1=C(N)N=C(SCC)C(C(=O)OCC)C1c1ccncc1` (stereo unspecified), with 156 °C; and `COC(=O)c1ccc(CBr)c2occc12`, with 73 to 80 °C; and `O=Cc1cc2cc(Cl)ccc2nc1Cl`, with 188 to 190 °C. Then `CCC(=O)OC1C(=O)N(CCNC)c2ccc(C)cc2SC1c1ccc(C)cc1` (stereo unspecified), with 128 to 132 °C. With `O=[N+]([O-])c1ccccc1C=[N+]([O-])c1cccc(CO)c1` the figure was 97 to 99 °C. `O=C(O)Cc1ccc(O)c(Cl)c1` gave a melting point of 101 to 104 °C. As to `CC(=O)Oc1cc2c(cc1C(C)(C)C)OC(C)(COc1ccc([N+](=O)[O-])cc1)CC2=O` (stereo unspecified), the melting point fell in the range of 82 to 84 °C. As for `Cc1cc2c(c(C)c1NC(=O)CC(C)(C)C)C(O)C(C)(C)O2` (stereo unspecified), the melting point is 217 to 218 °C. Then `Cc1cccc(NC(=O)NC2N=C(c3ccccc3F)c3ccccc3N(Cc3ncccc3C(N)=O)C2=O)c1` (racemic), with 203 °C. With `O=C(O)C(O)(CSc1ccccc1)C(F)(F)F` (stereo unspecified) the figure was 83 to 84 °C; with `CC(=O)Nc1ccc2c(c1)CC(N(C)C)C2` (stereo unspecified), 94 to 96 °C; with `O=C1Oc2ccccc2C1(Cc1ccccc1)Cn1cncn1` (stereo unspecified), 150 °C. Then `Cc1ccc(COc2ccc(CC(NC(=O)c3cn4ccc(-c5ccc(Cl)cc5)cc4n3)C(=O)O)cc2)cc1` (stereo unspecified), with 262 °C; and `O=C(CBr)Nc1ccc(Cl)cc1C(=O)c1ccc(O)cc1`, with 201 to 203 °C; and `CC(=O)NCC1CN(c2ccc(C(=O)c3cnc4n3CCS4)cc2)C(=O)O1` (stereo unspecified), with 259 to 260 °C.

As to `CCNC1C=CC=C(Oc2ccc(F)cc2)C1(Cl)[N+](=O)[O-]` (stereo unspecified), the melting point lay in the range of 69 to 70 °C.

Consider `CS(=O)(=O)c1ccccc1S(N)(=O)=O`, for which the melting point is 249 to 250 °C.

`NCCOc1cccc(CC(Nc2cc(-c3ccc(OCc4ccccc4)cc3)ncn2)C(=O)O)c1` (stereo unspecified) had a melting point of 154 °C.

`Cc1cc(COc2nn3c(-c4cc(C)on4)nnc3c3ccccc23)no1`: the melting point was in the range of 243 to 245 °C. With `O=C1OCCC12Sc1ccc(S(=O)(=O)N3CCOCC3)cc1C2=O` (stereo unspecified) the figure was 220 to 222 °C. With `Nc1nc(/C(=N/OC23CC4CC(CC(C4)C2)C3)C(=O)O)cs1` the figure was 203 to 204 °C; with `CC(C)(C)[Si](C)(C)Oc1ccc2cc3c(cc2c1)C(=O)c1cc2cc(O[Si](C)(C)C(C)(C)C)ccc2cc1C3=O`, more than 270 °C.

For the molecule `CCN(CC)C(=O)[C@H]1C[C@H](C(=O)OC(C)(C)C)N(C(=O)CNC(=O)Nc2cccc(C(=O)O)c2)[C@@H]1c1ccccc1F` (racemic), the melting point came to 150 °C. With `CC(Cc1c[nH]c2ccccc12)(NC(=O)OC1C2CC3CC(C2)CC1C3)C(=O)NC1(CC(=O)O)CCCCC1` (stereo unspecified) the figure was 174 °C.
